One series relates to L. major amastigotes. Nature of the series: L. major amastigotes within J774 cells, parasite survival. The class given is cell-based. The method, then:
To distinguish between leishmaniostatic and leishmanicidal effects, a time course survival curve was generated for J774 cultures infected with L. major.
Amastigotes were generated by infecting J774 murine macrophages. Infections were carried after seeding cells in 8-well Labtek chambers (Thermo Physic Scientific, Rochester N.Y.) at a concentration of 5×10^4 cells/well. To avoid multiplication, cells were incubated with mitomycin C at a concentration of 0.8 μg/ml for 16 h. Infective-stage promastigotes (metacyclics) of L. major were isolated from stationary cultures (4-5 day-old) by Ficoll enrichment, added to macrophage cultures (5 promastigotes: 1 cell) and kept overnight at 37° C. in the presence of 5% CO2 and DMEM with 10% FCS. Sixteen hours later, non-internalized promastigotes were then washed and replaced by culture medium containing the drug. Forty-eight hours later, wells were detached from the slides, stained with Diff-Quick (Dade Behring, Newark, Del.) and counted under light microscope. Parasite burden was determined by observation under light microscopy (1000×) as the number of amastigotes per one hundred J774 cells. Percentage of survival of amastigotes and MIC50 were calculated as above.

The test system of a further series is L. major promastigotes. Briefly: L. major promastigote drug treatment, parasite survival after 48 h. In kind it is cell-based. The method, then:
The effect of PZA was first investigated with promastigotes of L. major. PZA was diluted in medium and added to cultures. After 48 h, parasite multiplication was determined by counting parasites in culture. […] Incubation of L. major with 1 μg/ml amphotericin B (as a positive control) caused 100% mortality of promastigotes and 90% of amastigotes.
Mid-log phase (day 3 of culture) L. major promastigotes were employed. Parasite concentration was adjusted to 10^6 promastigotes/ml and seeded into 96-well plates in a volume of 100 μl (final concentration, 10^5 promastigotes/well). PZA was tested in triplicate in a concentration gradient from 1,000-0.5 μg/ml and added to the wells containing the parasite in a volume of 100 μl. A negative control was included with three wells containing only parasites and medium. The positive control consisted of amphotericin B (1 μg/ml). This concentration was previously employed by us because this concentration is equivalent to drug concentrations achieved in human plasma. After 48 h of incubation at 26° C., 10 μL of each well was diluted in 90 μL of the vital colorant (trypan blue in PBS) and the parasites were quantified in a Neubauer chamber. Data was normalized as percentage of survival compared to untreated controls. The Lethal Dose 50 (LD50) was extrapolated from the graph as the concentration of the products that inhibited the parasitic growth at 50% of the values of the negative control.

In a further series the test system is uninfected J774 cells. The class given is cell-based. The method, then: The potential cytotoxicity of PZA toward the mammalian cell line was determined by co-incubation of PZA with uninfected J774 cells for 48 h (10^4 cells/well) in 96-well culture plates. […] At 200 μg/ml, the compound started to show signs of toxicity, resulting in mortality of 25% of the cell monolayer. […] The control drug amphotericin B caused 5% mortality of the cell monolayer at the concentration tested (1 μg/ml).
J774 cell viability following incubation with PZA was also determined. Cells were seeded onto 8-well Labtek chambers as above and incubated with different concentrations of PZA (up to 1 mg/ml) for 48 h, stained with Diff-Quick and counted under light microscope. The percentage of viable cells was determined after quantifying the number of cells present per field (in 25 fields, ca. 500 cells). Percentage of survival and MIC50 were calculated as above.

A further series has as its system J774 cells. Nature of the series: Cytokine (ELISA) and nitric oxide (Griess test) production in J774 cells. The note with it: amphotericin B at the doses tested (0.1-1 μg/ml). In kind it is cell-based, murine. As for the experimental part: The ability of J774 cells to produce cytokines in response to infection and/or treatment was also determined. Cells were infected, treated or activated as described above. The amount of the proinflammatory cytokines IL-12 and TNF-α (implicated in Thl response and parasite killing), as well as the repressive cytokine IL-10, was determined by ELISA in the culture supernatants. The level of nitric oxide was also determined in the same supernatants. PZA treatment alone increased cytokine production, especially IL-12 and TNF-α and NO release. […] Finally, to test the specificity of the immune activation by PZA, we determined the effect that amphotericin B treatment had on activation and cytokine expression by J774 cells.
J774 cells or bone marrow-derived cells were seeded onto 24-well plates at a concentration of 5×10^5 cells/ml. Twenty-four hours later, PZA was added to the wells at different concentrations in the absence or presence of L. major (1:5 parasite ratio). In some experiments, J774 cells were treated with amphotericin B (0.1, 0.5, or 1 μg/ml). Two control groups were also included in this experiment: a positive control of activation consisting in a group of uninfected cells treated with 100 ng/ml LPS and 10 IU IFN-γ as a positive control of activation, and a negative control of activation, consisting in uninfected, untreated cells. Cell cultures were maintained overnight, and then cultured for an additional 6 h with brefeldin A (10 μg/ml), harvested by scraping and fixed in 2% paraformaldehyde. Prior to staining, cells were incubated with an anti-Fc III/II receptor and 10% normal mouse serum (NMS) in PBS containing 0.1% BSA, 0.01% NaN3. Cells were permeabilized with saponin and stained for the surface markers CD80 (clone 16-10A1), CD86 (clone GL1), MHCI (clone 28-14-8), MHCII (clone M5/114.15.2) and for the cytokines IL-12p40/p70 (clone C17.8) and IL-10 (clone JESS-16E3). Incubations were carried out for 30 min on ice. All antibodies were purchased from BD Biosciences or eBioscience. For each sample, at least 50,000 cells were analyzed. The data were collected and analyzed using CELLQuest software and a FACScalibur flow cytometer (Becton Dickinson, San Jose, Calif.).

Structures are written as SMILES.

Regarding `NC(=O)c1cnc(F)cn1` [5-Fl PZA], the “MIC50 reduced relative to PZA” value in the series on L. major amastigotes (L. major amastigotes within J774 cells) is on record as 100 fold. Besides, in the series on L. major amastigotes (L. major amastigotes within J774 cells (Table Ia)), the “MIC50 for PZA analogs” value was found to be 0.08 μM.

Take `C[C@@H]1[C@H](O)[C@@H](C)/C=C/C=C/C=C/C=C/C=C/C=C/C=C/[C@H](O[C@@H]2O[C@H](C)[C@@H](O)[C@H](N)[C@@H]2O)C[C@@H]2O[C@](O)(C[C@@H](O)C[C@@H](O)[C@H](O)CC[C@@H](O)C[C@@H](O)CC(=O)O[C@H]1C)C[C@H](O)[C@H]2C(=O)O` [Amphotericin B, amphotericin B]: the mortality of promastigotes with L. major promastigotes (1 μg/ml amphotericin B) was found to be 100%. The “percentage of survival compared to untreated control” value in the series with L. major promastigotes (promastigote, Amphotericin B 1 μg/ml, 48 h) is 0%; in the series with L. major amastigotes (amastigote in J774, Amphotericin B 1 μg/ml, 48 h), 10 ± 5%; with uninfected J774 cells (uninfected J774 cells, Amphotericin B 1 μg/ml, 48 h), 95 ± 16%. The mortality of amastigotes in the series with L. major amastigotes (1 μg/ml amphotericin B) is given as 90%. Moreover, the “elimination of parasites from macrophage cultures” value in the series with L. major amastigotes (amphotericin B 0.1 μg/ml, infected cells) was “total elimination of parasites”. Moreover, the “mortality of the cell monolayer” value in the series on uninfected J774 cells (amphotericin B 1 μg/ml) worked out at 5%. For the same molecule, the “activation and cytokine expression of J774 cells” value in the series on J774 cells is “did not result in activation”.

The values are drawn from US20120157396A1, “PYRAZINAMIDE FOR IMMUNOSTIMULATION AND THE TREATMENT OF LEISHMANIASES” (priority 2009, published 2012).
